For eleven cell lines, relative viability results are on record in the supplement of paper PMC10307832.

Common to all, as to assay: relative viability (nuclei count vs DMSO), 5 days (fraction); higher = more cells survive
Compound in experiment [1]: C=CCNC1=C2C[C@@H](C)C[C@H](OC)[C@H](O)[C@@H](C)/C=C(\C)[C@H](OC(N)=O)[C@@H](OC)/C=C\C=C(/C)C(=O)NC(=CC1=O)C2=O [17-AAG] + Nc1nc2[nH]cc(CCc3ccc(C(=O)N[C@@H](CCC(=O)O)C(=O)O)cc3)c2c(=O)[nH]1 [Pemetrexed] (partner 0.2 µM)
In short, it runs like this: (§1)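 Lung cancer cell lines in 1536-well plates got either a single drug or a fixed anchor-drug dose together with five library-drug doses (not always all listed) in √10 steps, by pin tool, on the day after seeding. Nuclei were counted after 5 days, and relative viability is the treated-to-vehicle ratio of nuclei counts. Values are medians of duplicate plates.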

Compound in experiment [2]: C=CCNC1=C2C[C@@H](C)C[C@H](OC)[C@H](O)[C@@H](C)/C=C(\C)[C@H](OC(N)=O)[C@@H](OC)/C=C\C=C(/C)C(=O)NC(=CC1=O)C2=O [17-AAG] + Cc1nc(NC(=O)N2CCC[C@H]2C(N)=O)sc1-c1ccnc(C(C)(C)C(F)(F)F)c1 [Alpelisib] (partner 2 µM)
In short, it runs like this:
as §1

Compound in experiment [3]: C=CCNC1=C2C[C@@H](C)C[C@H](OC)[C@H](O)[C@@H](C)/C=C(\C)[C@H](OC(N)=O)[C@@H](OC)/C=C\C=C(/C)C(=O)NC(=CC1=O)C2=O [17-AAG] + O=C(c1cc(Cc2n[nH]c(=O)c3ccccc23)ccc1F)N1CCN(C(=O)C2CC2)CC1 [Olaparib] (partner 8 µM)
In short, it runs like this:
as §1

Compound in experiment [4]: C=CCNC1=C2C[C@@H](C)C[C@H](OC)[C@H](O)[C@@H](C)/C=C(\C)[C@H](OC(N)=O)[C@@H](OC)/C=C\C=C(/C)C(=O)NC(=CC1=O)C2=O [17-AAG] + CC(C)C[C@H](NC(=O)[C@H](Cc1ccccc1)NC(=O)c1cnccn1)B(O)O [Bortezomib] (partner 0.002 µM)
Put shortly: as §1

Take NCI-H1395: the relative viability came to 0.86 in experiment [1] (first compound 0.00128 µM); 0.938 in experiment [1] (first compound 0.004048 µM); 0.494 in experiment [1] (first compound 0.0128 µM); 0.349 in experiment [1] (first compound 0.04048 µM); 0.354 in experiment [1] (first compound 0.128 µM); 1.02 in experiment [2] (first compound 0.00128 µM). The relative viability in experiment [2] (first compound 0.004048 µM) is 0.967; in experiment [2] (first compound 0.0128 µM), 0.804; in experiment [2] (first compound 0.04048 µM), 0.395; in experiment [2] (first compound 0.128 µM), 0.388; in experiment [3] (first compound 0.00128 µM) it was 0.452; in experiment [3] (first compound 0.004048 µM), 0.458. Moreover, the relative viability in experiment [3] (first compound 0.0128 µM) turned out to be 0.359; in experiment [3] (first compound 0.04048 µM), 0.37; in experiment [3] (first compound 0.128 µM), 0.418.

For the cell line NCI-H1563, the relative viability in experiment [4] (first compound 0.00128 µM) came to 0.855; in experiment [4] (first compound 0.004048 µM), 0.702; in experiment [4] (first compound 0.0128 µM), 0.597; in experiment [4] (first compound 0.04048 µM), 0.573; in experiment [4] (first compound 0.128 µM) it was 0.469; in experiment [1] (first compound 0.00128 µM), 0.773. Further, the relative viability came to 0.898 in experiment [1] (first compound 0.004048 µM); 0.468 in experiment [1] (first compound 0.0128 µM); 0.452 in experiment [1] (first compound 0.04048 µM); 0.414 in experiment [1] (first compound 0.128 µM); 0.964 in experiment [2] (first compound 0.00128 µM); 0.853 in experiment [2] (first compound 0.004048 µM). The relative viability in experiment [2] (first compound 0.0128 µM) turned out to be 0.616; in experiment [2] (first compound 0.04048 µM) it was 0.591; in experiment [2] (first compound 0.128 µM), 0.514.

On to NCI-H1648, for which the relative viability is 0.904 in experiment [1] (first compound 0.004048 µM); 0.649 in experiment [1] (first compound 0.0128 µM); 0.29 in experiment [1] (first compound 0.04048 µM); 0.288 in experiment [1] (first compound 0.128 µM); 0.716 in experiment [3] (first compound 0.004048 µM); 0.921 in experiment [3] (first compound 0.0128 µM). The relative viability in experiment [3] (first compound 0.04048 µM) is 0.9; in experiment [3] (first compound 0.128 µM) it was 0.317.

On to NCI-H1650, for which the relative viability in experiment [4] (first compound 0.00128 µM) amounted to 0.217; in experiment [4] (first compound 0.004048 µM), 0.219; in experiment [4] (first compound 0.0128 µM), 0.181; in experiment [4] (first compound 0.04048 µM) it was 0.224; in experiment [4] (first compound 0.128 µM), 0.197; in experiment [1] (first compound 0.00128 µM) it was 0.336. Further, the relative viability came out at 0.383 in experiment [1] (first compound 0.004048 µM); 0.351 in experiment [1] (first compound 0.0128 µM); 0.168 in experiment [1] (first compound 0.04048 µM); 0.15 in experiment [1] (first compound 0.128 µM); 0.721 in experiment [3] (first compound 0.00128 µM); 0.636 in experiment [3] (first compound 0.004048 µM). Also, the values for the relative viability in experiment [3] (first compound 0.0128 µM), in experiment [3] (first compound 0.04048 µM) and in experiment [3] (first compound 0.128 µM) were 0.147, 0.156 and 0.113, respectively.

NCI-H1703: the relative viability came out at 0.316 in experiment [4] (first compound 0.00128 µM); 0.154 in experiment [4] (first compound 0.004048 µM); 0.145 in experiment [4] (first compound 0.0128 µM); 0.153 in experiment [4] (first compound 0.04048 µM); 0.138 in experiment [4] (first compound 0.128 µM); 0.366 in experiment [2] (first compound 0.00128 µM). Also, the relative viability came out at 0.152 in experiment [2] (first compound 0.004048 µM); 0.141 in experiment [2] (first compound 0.0128 µM); 0.155 in experiment [2] (first compound 0.04048 µM); 0.134 in experiment [2] (first compound 0.128 µM); 0.512 in experiment [3] (first compound 0.00128 µM); 0.183 in experiment [3] (first compound 0.004048 µM). For the same cell line, the relative viability stood at 0.144 in experiment [3] (first compound 0.0128 µM), 0.164 in experiment [3] (first compound 0.04048 µM) and 0.105 in experiment [3] (first compound 0.128 µM).

On to NCI-H1793, for which the relative viability came to 0.837 in experiment [1] (first compound 0.00128 µM); 0.513 in experiment [1] (first compound 0.004048 µM); 0.213 in experiment [1] (first compound 0.0128 µM); 0.16 in experiment [1] (first compound 0.04048 µM); 0.124 in experiment [1] (first compound 0.128 µM); 0.846 in experiment [2] (first compound 0.00128 µM). Also, the relative viability turned out to be 0.612 in experiment [2] (first compound 0.004048 µM); 0.356 in experiment [2] (first compound 0.0128 µM); 0.198 in experiment [2] (first compound 0.04048 µM); 0.167 in experiment [2] (first compound 0.128 µM); 0.903 in experiment [3] (first compound 0.00128 µM); 0.594 in experiment [3] (first compound 0.004048 µM). For the same cell line, the relative viability in experiment [3] (first compound 0.0128 µM) was determined as 0.184; in experiment [3] (first compound 0.04048 µM), 0.198; in experiment [3] (first compound 0.128 µM), 0.141.

For NCI-H1944, the relative viability in experiment [1] (first compound 0.00128 µM) was found to be 0.601; in experiment [1] (first compound 0.004048 µM), 0.561; in experiment [1] (first compound 0.0128 µM) it was 0.357; in experiment [1] (first compound 0.04048 µM), 0.266; in experiment [1] (first compound 0.128 µM) it was 0.131; in experiment [2] (first compound 0.00128 µM), 0.883. Moreover, the relative viability in experiment [2] (first compound 0.004048 µM) was 0.88; in experiment [2] (first compound 0.0128 µM) it was 0.85; in experiment [2] (first compound 0.04048 µM) it was 0.682; in experiment [2] (first compound 0.128 µM) it was 0.281; in experiment [3] (first compound 0.00128 µM) it was 0.4; in experiment [3] (first compound 0.004048 µM), 0.413. The relative viability in experiment [3] (first compound 0.0128 µM) was determined as 0.383; in experiment [3] (first compound 0.04048 µM), 0.335; in experiment [3] (first compound 0.128 µM) it was 0.137.

Consider NCI-H2170, for which the relative viability in experiment [1] (first compound 0.00128 µM) was determined as 0.256; in experiment [1] (first compound 0.004048 µM), 0.27; in experiment [1] (first compound 0.0128 µM) it was 0.262; in experiment [1] (first compound 0.04048 µM), 0.152; in experiment [1] (first compound 0.128 µM), 0.139; in experiment [2] (first compound 0.00128 µM) it was 0.821. Moreover, the relative viability came out at 0.723 in experiment [2] (first compound 0.004048 µM); 0.426 in experiment [2] (first compound 0.0128 µM); 0.244 in experiment [2] (first compound 0.04048 µM); 0.178 in experiment [2] (first compound 0.128 µM); 0.663 in experiment [3] (first compound 0.00128 µM); 0.565 in experiment [3] (first compound 0.004048 µM). For the same cell line, the relative viability worked out at 0.466 in experiment [3] (first compound 0.0128 µM), 0.129 in experiment [3] (first compound 0.04048 µM) and 0.12 in experiment [3] (first compound 0.128 µM).

With NCI-H2342, the relative viability in experiment [1] (first compound 0.00128 µM) stood at 0.803; in experiment [1] (first compound 0.004048 µM), 0.854; in experiment [1] (first compound 0.0128 µM), 0.782; in experiment [1] (first compound 0.04048 µM), 0.589; in experiment [1] (first compound 0.128 µM), 0.39; in experiment [3] (first compound 0.00128 µM) it was 0.506. In addition, the relative viability in experiment [3] (first compound 0.004048 µM) is 0.4; in experiment [3] (first compound 0.0128 µM), 0.487; in experiment [3] (first compound 0.04048 µM) it was 0.437; in experiment [3] (first compound 0.128 µM), 0.374.

For SK-MES-1, the relative viability came to 0.951 in experiment [1] (first compound 0.00128 µM); 0.781 in experiment [1] (first compound 0.004048 µM); 0.284 in experiment [1] (first compound 0.0128 µM); 0.171 in experiment [1] (first compound 0.04048 µM); 0.153 in experiment [1] (first compound 0.128 µM); 0.884 in experiment [2] (first compound 0.00128 µM). Further, the relative viability in experiment [2] (first compound 0.004048 µM) was found to be 0.842; in experiment [2] (first compound 0.0128 µM) it was 0.553; in experiment [2] (first compound 0.04048 µM) it was 0.144; in experiment [2] (first compound 0.128 µM), 0.152; in experiment [3] (first compound 0.00128 µM) it was 0.732; in experiment [3] (first compound 0.004048 µM) it was 0.494. Also, the relative viability in experiment [3] (first compound 0.0128 µM) was 0.184; in experiment [3] (first compound 0.04048 µM), 0.17; in experiment [3] (first compound 0.128 µM), 0.16.

Turning to SW 900, the relative viability in experiment [1] (first compound 0.00128 µM) is 0.455; in experiment [1] (first compound 0.004048 µM) it was 0.437; in experiment [1] (first compound 0.0128 µM), 0.242; in experiment [1] (first compound 0.04048 µM) it was 0.139; in experiment [1] (first compound 0.128 µM), 0.168; in experiment [3] (first compound 0.00128 µM) it was 0.892. The relative viability in experiment [3] (first compound 0.004048 µM) was determined as 0.491; in experiment [3] (first compound 0.0128 µM) it was 0.244; in experiment [3] (first compound 0.04048 µM), 0.192; in experiment [3] (first compound 0.128 µM), 0.163.
